Assay results: patent publication US20200297015A1, “TRYPTOPHAN DERIVATIVES AS SWEETENERS” (CHROMOCELL CORPORATION, priority 2017, published 2020)

Experiments:
[1] = test system: sweet taste; details: Optimising Sweet Taste in Foods, 2006; cited from earlier work
[2] = test system: perception of sweet taste in humans; assay: Descriptive Analysis (DA) sensory evaluation by trained panel, aqueous matrix; format: in vivo, human; details: for Bitter @ 18 sec / Bitter @ 1 min / Bitter @ 1 min 30 s / Bitter @2 min / Bitter @3 min / Sweet @ 18 sec / Sweet @ 1 min / Sweet @ 1 min 30 s / Sweet @ 2 min: intensity on 15 cm scale; for Bitter @ 18 sec / Bitter @ 1 min / Bitter @ 1 min 30 s / Bitter @2 min / Bitter @3 min / Sweet @ 18 sec / Sweet @ 1 min / Sweet @ 1 min 30 s / Sweet @ 2 min / Sweet AT: in water, 500 ppm Rebaudioside M (control), 1500 ppm Compound 5 (variant), n≥12; for Sweet AT: sweet appearance time
Protocol: The effect of the test compound on the perception of sweet taste in an aqueous matrix was evaluated using a descriptive analysis methodology with a group of trained panelists, as follows.
Preparation of Samples for Sensory Taste Tests: • Control Sample: 500 ppm Rebaudioside M • Variant Sample: 1500 ppm Compound 5 Samples for the descriptive analysis taste test were prepared by dissolving, both the control and variant samples, directly in water at the desired test concentrations.
The taste test panelists used in Example I were selected using a sensory acuity screening program and then trained in descriptive analysis taste testing. Candidate panelists were recruited, with prescreening and personal interviews, and were assessed for their ability to detect, recognize and differentiate basic taste attributes or mixtures thereof as part of a standardized acuity test. These candidate panelists were also assessed for their innate ability to identify flavors, and to rank on intensity scales. Other senses such as smell and vision were also included as part of the assessment. Candidates also were screened for their ability to use the language to describe and articulate ideas.
The method was performed as a double blinded, randomized test, where trained Descriptive Analysis taste panelists (n≥12) profiled the maximum intensity perceived at 18 seconds, of the control sample and the variant sample for the following 3 attributes; sweet, bitter and sweet appearance time. In addition to the maximum intensity, the panelists continued to assess sweet and bitter intensity (at 1 min, 1.5 min, 2 min, and 3 min), to generate a discontinuous time scale Intensity profile (TSI) of sweet and bitter percepts to gain an understanding of the taste profile of the control and variant samples. Each panelist scored sweetness intensity on a 15 cm scale, with the control and variant sample being determined to be iso-sweet by ANOVA at 18 seconds.

[3] = test system: sweetness intensity in humans; assay: Discriminative sensory evaluation of sweetness intensity, two-alternative forced choice sip and spit (2AFC) in water; format: in vivo, human
Protocol: The test compounds were evaluated for sweetness intensity in a aqueous solution in humans using a two-alternative forced choice “sip and spit” method (2AFC).
Preparation of Samples for Sensory Taste Tests: • Control Sample: Sucrose (various levels) • Variant Sample: Compound 1, 5 and 8
The control samples for the discrimination taste test were prepared by dissolving the sucrose directly in water at the indicated test concentrations Variant sample containing Compound 1 was prepared by dissolving Compound i directly in water at the desired concentration. Variant sample containing Compound 5 and 8 were prepared by dissolving the respective sodium salts of the compounds directly in water (refer to Example 4).
The 2AFC test used for compound evaluation was a double blinded and randomized test where taste panelists (n≥12) evaluate a pair of sweetened solutions at a time—one sample is sweetened with sucrose (i.e. control) while the other sample is sweetened with the test compound (i.e. variant). Panelists were instructed not to eat or drink (except water) for at least 1 h before the test. During the test, panelists were instructed to sip each sample, swirl it around their mouth and then expectorate. After tasting each sample in the pair, panelists were instructed to record the sample that is “sweeter” in taste. Panelists cleansed their palates by rinsing with water, eating a cracker and waiting for an interval of about 5 minutes. All samples were tasted at ambient temperatures. Data were analyzed using binomial probabilities.

[4] = Solubility: concentrated stock by conversion to sodium salt form; format: physicochemical; details: for concentrated stock compared to the free base form: sodium salt form vs free base form; for concentrated solution prepared: sodium salt form, with 5.5% by weight sodium hydroxide in de-ionized water, vortex and sonication 30-120 s
Description: Compounds 5 and 8 have been prepared at an increased concentration for commercial applications by converting them into their respective sodium salt forms. The process of converting to a salt form was obtained by dissolving the Compounds in water and adding a set quantity of sodium hydroxide or potassium hydroxide solution. A concentrated solution of 30% by weight of Compound 5 and 8 has been prepared by this method. This has been achieved by combining 30%, by weight, of Compound 5 or Compound 8 with 5.5%, by weight, of sodium hydroxide in de-ionized water. The mixture is subjected to intermittent vortex and sonication for a duration of 30-120 s. This process achieves a 300 times concentrated stock compared to the free base form of Compound 5 and 8, thereby enabling delivery of an increased concentration of the compounds in a model beverage/matrix. The sodium/potassium salt can increase solubility by changing neutral zwitterion to more hydrophilic negative charged anion.

[5] = test system: sweetness intensity (expert tasters); assay: Reference scaling of sweetness intensity against sucrose references by expert tasters; format: in vivo, human; details: for Sweetness Intensity (avg): @ 1000 ppm, ranked against sucrose references (5%, 7.5%, 10%), n>5
Protocol: (§1) Preparation of Samples for Taste Tests: • Control Sample: 250 ppm, 500 ppm and 1000 ppm of D-Tryptophan • Variant Sample: 250 ppm, 500 ppm and 1000 ppm of Compound 5 Samples for the taste test were prepared by dissolving, both the control and variant samples, directly in water at the desired test concentrations.
In another test, expert tasters (n>5) also tasted Compound 5 and Control Samples to a set of sucrose references (5%, 7.5%, 10%) and ranked the Test and Control samples for sweetness intensity compared to sucrose references. At the same concentration, Compound 5 achieves higher (close to 2 fold) potency compared to Control compound.

[6] = test system: sweetness intensity (expert tasters); assay: Sweetness potency comparison vs D-Tryptophan, paired comparison by expert tasters; format: in vivo, human; details: in water, n>5
Protocol: The sweetness potency of the test compound was compared D-Tryptophan to understand potency differences between the test compound and non-methylated variants of D-tryptophan.
as §1
Expert tasters (n>5) tasted the control and test samples in a blinded experiment and assessed sweetness intensity (at the same concentration) via paired comparison. Each taster evaluated a pair of sweetened solutions at a time—one sample is sweetened with Control compound (i.e. control) while the other sample is sweetened with the test compound (i.e. variant). After tasting each sample in the pair, tasters were instructed to record the sample that is “sweeter” in taste. All samples were tasted at ambient temperatures.

Row | SMILES | Bitter @ 18 sec [2] | Bitter @ 1 min [2] | Bitter @ 1 min 30 s [2] | Bitter @2 min [2] | Bitter @3 min [2] | Sweet @ 18 sec [2] | Sweet @ 1 min [2] | Sweet @ 1 min 30 s [2] | Sweet @ 2 min [2] | Sweet AT [2] | concentrated stock compared to the free base form [4] [times] | concentrated solution prepared [4] [% by weight] | Sweetness Intensity (avg) [5] [% Sucrose equivalent] | further results
1 | N[C@H](Cc1c[nH]c2cc(Cl)ccc12)C(=O)O [6-chloro-D-tryptophan] |  |  |  |  |  |  |  |  |  |  |  |  |  | sweeter than sucrose [1]: 1000 times
2 | C=C1C[C@@]23CC[C@H]4[C@@](C)(CCC[C@@]4(C)C(=O)O[C@@H]4O[C@H](CO)[C@@H](O)[C@H](O[C@@H]5O[C@H](CO)[C@@H](O)[C@H](O)[C@H]5O)[C@H]4O[C@@H]4O[C@H](CO)[C@@H](O)[C@H](O)[C@H]4O)[C@@H]2CC[C@]1(O[C@@H]1O[C@H](CO)[C@@H](O)[C@H](O[C@@H]2O[C@H](CO)[C@@H](O)[C@H](O)[C@H]2O)[C@H]1O[C@@H]1O[C@H](CO)[C@@H](O)[C@H](O)[C@H]1O)C3 [Rebaudioside M, reference compound] | 3.3 | 2.2 | 1.4 | 0.7 | 0.3 | 10.7 | 7.2 | 5.3 | 3.6 | 5.9 |  |  |  | 
3 | Cc1ccc2[nH]cc(C[C@@H](N)C(=O)O)c2c1 [Compound 5, (R)-2-amino-3-(5-methyl-1H-indol-3-yl)propanoic acid] | 2.2 | 1.2 | 0.5 | 0.1 | 0.1 | 10.8 | 6.5 | 4.6 | 3 | 4.8 | 300 | 30 | 9.25 | lingering effects, sweet and bitter, as compared to the Rebaudioside M sample ([2]; by ANOVA, at multiple time points, 1500 ppm Compound 5 vs 500 ppm Rebaudioside M): significantly less; Number picking Variant ([3]; Compound 5 @ 2000 ppm (sodium salt dissolved in water) vs 12% Sucrose, Total Number 38): 26; potency compared to Control compound ([5]; at the same concentration, Control = D-Tryptophan): ~2 fold; % picking Test as “sweeter” ([6]; Compound 5 @ 250 ppm vs Control (D-Tryptophan) @ 250 ppm): 100%; % picking Test as “sweeter” ([6]; Compound 5 @ 500 ppm vs Control (D-Tryptophan) @ 500 ppm): 100%; % picking Test as “sweeter” ([6]; Compound 5 @ 1000 ppm vs Control (D-Tryptophan) @ 1000 ppm): 100%
4 | Cc1cccc2[nH]cc(CC(N)C(=O)O)c12 (centres unmarked) [Compound 1, 2-amino-3-(4-methyl-1H-indol-3-yl)propanoic acid] |  |  |  |  |  |  |  |  |  |  |  |  |  | Number picking Variant ([3]; Compound 1 @ 1000 ppm vs 10% Sucrose, in water, Total Number 38): 25
5 | Cc1[nH]c2ccccc2c1C[C@@H](N)C(=O)O [Compound 8, (R)-2-amino-3-(2-methyl-1H-indol-3-yl)propanoic acid] |  |  |  |  |  |  |  |  |  |  | 300 | 30 |  | Number picking Variant ([3]; Compound 8 @ 3000 ppm (sodium salt dissolved in water) vs 8% Sucrose, Total Number 20): 11
6 | N[C@H](Cc1c[nH]c2ccccc12)C(=O)O [Control, D-Tryptophan, reference compound] |  |  |  |  |  |  |  |  |  |  |  |  | 5.83 | 
